Here are results for eight compounds from patent publication US20240383911A1, “AZAINDAZOLE MACROCYCLE COMPOUNDS AND USES THEREOF” (BROADENBIO CO., LTD, priority 2021, published 2024).

One assay concerns the target HPK1 (Homo sapiens, UniProt Q92918). In words: HPK1 kinase activity inhibition test (ADP-Glo, luminescence). The assay is classed as biochemical. To be noted: 2 μM ATP, 5 nM HPK1, read-out: IC50, inhibitory effects on HPK1 kinase activity. How it is done: The kinase activity of HPK1 is manifested as activity of autophosphorylation and phosphorylation of downstream substrates. In the process of autophosphorylation, additional substrates are not required, and ATP is consumed to generate ADP. The amount of the product is measured by ADP-Glo reagent and luminescence method to reflect kinase activity.
(§1) Tested compounds: compounds prepared in the Examples of this invention.
Preparation of compound stock solution: dissolve the test compound in 100% DMSO to make a 10 mM stock solution;
Preparation of 4×Kinase Reaction Buffer:
Preparation of 2×HPK1 Kinase Solution:
Preparation of 4×ATP Mixture:
Dilute the stock solution of the test compound by 5 times with 100% DMSO, make a 4-fold equal dilution in a 96-well dilution plate, add 1 μL of the compound to 49 μL of kinase reaction buffer, and shake on a microplate shaker for 20 minutes. Transfer 2 μL of 2×HPK1 kinase solution to 384 reaction plate, add 1 μL of the test compound to the 384 reaction plate (Greiner, Cat #784075), centrifuge for 1 minute (1000 rpm/min), incubate at 25° C. for 10 minutes. Transfer 1 μL of the 4×ATP mixture to a 384 reaction plate, centrifuge for 1 minute (1000 rpm/min), and incubate at 25° C. for 60 minutes. In the reaction system, the final concentration of DMSO is 0.5%. Transfer 4 μL of ADP-Glo to a 384 reaction plate, centrifuge for 1 minute (1000 rpm/min), and incubate at 25° C. for 40 minutes. Transfer 8 μL detection solution to a 384 reaction plate, centrifuge for 1 minute (1000 rpm/min), and incubate at 25° C. for 40 minutes. The […] is read using a Biotek multi-function plate reader, and the IC50 (half inhibitory concentration) of the compound is obtained using a four-coefficient nonlinear fitting formula.
(In general: In ADP-Glo the light output rises with the ADP produced.)

The subject of the next assay is Human Jurkat-E6-1 cells. In words: Detection of IL-2 production by Jurkat cells using ELISA. The class given is cell-based. To be noted: anti-CD3/anti-CD28 stimulation 24 hours, read-out: Percentage of the amount of IL-2 secreted by compound treated vs DMSO-treated cells; for activity at 0.33 µM: tested compound 0.33 μM; for activity at 1 µM: tested compound 1.0 μM. On the procedure:
as §1
Human Jurkat-E6-1 cells were incubated with various concentrations of tested compounds for 30 minutes in a humidified incubator at 37° C. and 5% CO2. Cells were transferred to cell culture plates pre-coated with anti-human CD3 antibody, then soluble anti-human CD28 antibody was added, and cells were stimulated for 24 hours at 37° C. and 5% CO2 in a humidified incubator. The cell culture medium was collected after centrifugation, and was then transferred to a 96-well transparent microtiter plate (Thermo) pre-coated with anti-human IL-2 antibody, incubated at room temperature for 2 hours with gently shaking, washed with washing buffer for 4 times, and then followed the ELISA MAX Deluxe Set Human IL-2 (BioLegend) kit procedures, used a microplate reader (Molecular Device, i3X) to read the GD value at 450 nm. The best standard curve was selected by the microplate reader application software, and the corresponding concentration was calculated according to the GD value of the standard. Results are expressed as a percentage (%) of the amount of IL-2 secreted by compound-treated vs DMSO-treated cells.
(In general: In an ELISA, binding on a coated surface is turned into a signal by an enzyme label.)

HPK1, sequence (Q92918 whole entry): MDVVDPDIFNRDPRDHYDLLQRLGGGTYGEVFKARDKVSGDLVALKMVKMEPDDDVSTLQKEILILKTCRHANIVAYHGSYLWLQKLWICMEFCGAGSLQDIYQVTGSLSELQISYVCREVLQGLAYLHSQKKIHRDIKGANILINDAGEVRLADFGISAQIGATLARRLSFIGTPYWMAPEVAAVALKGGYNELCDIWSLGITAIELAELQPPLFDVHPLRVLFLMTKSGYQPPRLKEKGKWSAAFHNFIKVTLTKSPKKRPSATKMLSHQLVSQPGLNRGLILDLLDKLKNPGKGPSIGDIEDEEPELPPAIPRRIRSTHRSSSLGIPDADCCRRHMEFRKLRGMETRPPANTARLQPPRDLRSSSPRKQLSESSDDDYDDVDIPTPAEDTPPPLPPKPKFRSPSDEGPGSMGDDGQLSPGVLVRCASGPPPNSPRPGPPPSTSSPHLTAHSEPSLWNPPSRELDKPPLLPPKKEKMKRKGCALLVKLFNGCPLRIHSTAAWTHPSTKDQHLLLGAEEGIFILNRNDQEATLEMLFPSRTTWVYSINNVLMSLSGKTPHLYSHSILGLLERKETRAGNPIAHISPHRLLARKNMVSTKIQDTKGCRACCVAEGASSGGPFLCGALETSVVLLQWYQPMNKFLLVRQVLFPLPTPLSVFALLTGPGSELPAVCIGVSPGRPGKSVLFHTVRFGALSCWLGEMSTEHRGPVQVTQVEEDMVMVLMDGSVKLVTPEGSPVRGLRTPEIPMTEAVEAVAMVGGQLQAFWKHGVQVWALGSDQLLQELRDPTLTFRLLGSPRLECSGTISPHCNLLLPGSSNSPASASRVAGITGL

As a reminder, the IC50 is the concentration that gives 50% inhibition. With `OC1(CN2CCOCC2)CCN(c2ccc3cc2OCCCOc2cccc(F)c2-c2cc4c-3n[nH]c4cn2)CC1` [Compound 113, 1-{16-fluoro-7,11-dioxa-19,22,23-triazapentacyclo[16.5.2.1^2,6.0^12,17.0^21,24]hexacosa-1(23),2,4,6(26),12(17),13,15,18,20,24-decaen-5-yl}-4-[(morpholin-4-yl)methyl]piperidin-4-ol], at HPK1, the 50% inhibitory concentration (IC50) fell in the range of 5 to 50 nM. For the same compound, the activity at 0.33 µM in the assay with Human Jurkat-E6-1 cells worked out at 265%.

In the case of `CN1CCN(c2ccc3cc2OCC(O)COc2cccc(F)c2-c2cc4c-3n[nH]c4cn2)CC1` (stereo not shown) [Compound 114, 16-fluoro-5-(4-methylpiperazin-1-yl)-7,11-dioxa-19,22,23-triazapentacyclo[16.5.2.1^2,6.0^12,17.0^21,24]hexacosa-1(23),2,4,6(26),12(17),13,15,18,20,24-decaen-9-ol], the half-inhibitory concentration (IC50) at HPK1 is ≤ 5 nM. Further, in the assay on Human Jurkat-E6-1 cells, the activity at 0.33 µM came to 239%.

`CN1CCN(c2ccc3cc2OCCCOCc2cccc(F)c2-c2ncc4[nH]nc-3c4n2)CC1` [Compound 115, 17-fluoro-5-(4-methylpiperazin-1-yl)-7,11-dioxa-20,23,24,26-tetraazapentacyclo[17.5.2.1^2,6.0^13,18.0^22,25]heptacosa-1(24),2,4,6(27),13(18),14,16,19,21,25-decaene]: the IC50 at HPK1 fell in the range of 5 to 50 nM. Also, the activity at 1 µM in the assay with Human Jurkat-E6-1 cells is 263%.

Consider `CN1C2CC1CN(c1ccc3cc1OCCCOCc1cccc(F)c1-c1cc4c-3n[nH]c4cn1)C2` [Compound 116, 17-fluoro-5-{6-methyl-3,6-diazabicyclo[3.1.1]heptan-3-yl}-7,11-dioxa-20,23,24-triazapentacyclo[17.5.2.1^2,6.0^13,18.0^22,25]heptacosa-1(24),2,4,6(27),13(18),14,16,19,21,25-decaene], for which, at HPK1, the IC50 is ≤ 5 nM. In addition, the activity at 0.33 µM in the assay with Human Jurkat-E6-1 cells was 450%.

Consider `CN1C2CC1CN(c1ccc3cc1OCCCOc1cccc(F)c1-c1cc4c-3n[nH]c4cn1)C2` [Compound 117, 16-fluoro-5-{6-methyl-3,6-diazabicyclo[3.1.1]heptan-3-yl}-7,11-dioxa-19,22,23-triazapentacyclo[16.5.2.1^2,6.0^12,17.0^21,24]hexacosa-1(23),2,4,6(26),12(17),13,15,18,20,24-decaene], for which the IC50 at HPK1 was ≤ 5 nM. The activity at 1 µM in the assay with Human Jurkat-E6-1 cells turned out to be 525%.

On to `O[C@@H]1COc2cc(ccc2N2CCN3CCOC[C@H]3C2)-c2n[nH]c3cnc(cc23)-c2c(F)cccc2OC1` [Compound 120, (9S)-5-[(9aR)-octahydropyrazino[2,1-c][1,4]oxazin-8-yl]-16-fluoro-7,11-dioxa-19,22,23-triazapentacyclo[16.5.2.1^2,6.0^12,17.0^21,24]hexacosa-1(23),2,4,6(26),12(17),13,15,18,20,24-decaen-9-ol], for which the half-maximal inhibitory concentration (IC50) on HPK1 was ≤ 5 nM. The activity at 1 µM with Human Jurkat-E6-1 cells worked out at 494%.

Regarding `CN1CCN(c2ccc3cc2OCCCOCc2cccc(F)c2-c2cc4c-3n[nH]c4cn2)C[C@@H]1CO` [Compound 121, [(2R)-4-{17-fluoro-7,11-dioxa-20,23,24-triazapentacyclo[17.5.2.1^2,6.0^13,18.0^22,25]heptacosa-1(24),2,4,6(27),13(18),14,16,19,21,25-decaen-5-yl}-1-methylpiperazin-2-yl]methanol], on HPK1, the 50% inhibitory concentration (IC50) was ≤ 5 nM. Moreover, the activity at 0.33 µM in the assay with Human Jurkat-E6-1 cells amounted to 467%.

As for `O=C1OC[C@H]2CN(c3ccc4cc3OCCCOCc3cccc(F)c3-c3cc5c-4n[nH]c5cn3)CCN12` [Compound 123, (8aR)-7-{17-fluoro-7,11-dioxa-20,23,24-triazapentacyclo[17.5.2.1^2,6.0^13,18.0^22,25]heptacosa-1(24),2,4,6(27),13(18),14,16,19,21,25-decaen-5-yl}-hexahydro-1H-[1,3]oxazolo[3,4-a]pyrazin-3-one], the half-inhibitory concentration (IC50) on HPK1 was ≤ 5 nM. Further, the activity at 1 µM with Human Jurkat-E6-1 cells was 440%.
